Results as given in US20240109930A1, “TRIAZOLYL-METHYL SUBSTITUTED ALPHA-D-GALACTOPYRANOSIDE DERIVATIVES” (Idorsia Pharmaceuticals Ltd, priority 2021, published 2024).

Key:
human Gal-1 (hGal-1) = human Gal-1 (hGal-1) (Homo sapiens, UniProt P09382, C131S/C17S/C43S/C61S/C89S); experiment: Competitive binding assay: biotinylated hGal-1 binding to microplate-adsorbed asialofetuin (ASF); conditions: IC50 values from several measurements given as geomean
Summary of the method: (§1)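 Biotinylated hGal-3 or hGal-1 (preferably cysteine-free Cys→Ser mutant), 300–1000 ng/mL, competes with compound for ASF-coated wells for 3 h at 4 °C. Bound lectin detected with streptavidin-peroxidase (80 ng/mL, 1 h, 4 °C) and ABTS by absorbance; IC50 reported as geomean of several runs.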

human Gal-3 (hGal-3) = human Gal-3 (hGal-3) (Homo sapiens (Human), UniProt P17931); experiment: Competitive binding assay: biotinylated hGal-3 binding to microplate-adsorbed asialofetuin (ASF); conditions: IC50 values from several measurements given as geomean
Sequence of human Gal-3 (hGal-3) (P17931 whole entry): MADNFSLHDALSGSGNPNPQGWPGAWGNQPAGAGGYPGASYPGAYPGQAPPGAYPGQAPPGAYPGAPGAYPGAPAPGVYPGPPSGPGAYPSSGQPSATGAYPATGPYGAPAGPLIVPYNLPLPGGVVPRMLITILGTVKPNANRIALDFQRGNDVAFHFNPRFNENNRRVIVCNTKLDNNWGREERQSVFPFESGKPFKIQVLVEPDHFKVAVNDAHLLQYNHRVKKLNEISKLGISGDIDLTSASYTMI
Summary of the method: as §1

Row | Compound | IC50 (human Gal-1 (hGal-1)) [nM] | IC50 (human Gal-3 (hGal-3)) [nM]
1 | CO[C@@H]1[C@@H](n2cc(-c3ccc(F)c(F)c3F)nn2)[C@@H](O)[C@@H](CO)O[C@@H]1Cc1cn(C23CCC(N)(CC2)CC3)nn1 [Ex 3.2.39.] | 810 | 50
2 | CO[C@@H]1[C@@H](n2cc(-c3ccc(Br)c(F)c3F)nn2)[C@@H](O)[C@@H](CO)O[C@@H]1Cc1cn([C@H]2CCC[C@@H]2O)nn1 [Ex 4.1.3.] | 4700 | 40
3 | CO[C@@H]1[C@@H](n2cc(-c3ccc(Br)c(F)c3F)nn2)[C@@H](O)[C@@H](CO)O[C@@H]1Cc1cn(C2(CO)CC2)nn1 [Ex 4.1.4.] | 2930 | 40
4 | CO[C@@H]1[C@@H](n2cc(-c3ccc(Br)c(F)c3F)nn2)[C@@H](O)[C@@H](CO)O[C@@H]1Cc1cn(C2(C)COC2)nn1 [Ex 4.1.6.] | 1460 | 40
5 | CO[C@@H]1[C@@H](n2cc(-c3ccc(Br)c(F)c3F)nn2)[C@@H](O)[C@@H](CO)O[C@@H]1Cc1cn(C23CC(C2)C3)nn1 [Ex 4.1.12.] | 3920 | 40
6 | CO[C@@H]1[C@@H](n2cc(-c3ccc(Br)c(F)c3F)nn2)[C@@H](O)[C@@H](CO)O[C@@H]1Cc1cn(C2(C)CCC2)nn1 [Ex 4.1.13.] | 2200 | 20
7 | CO[C@@H]1[C@@H](n2cc(-c3ccc(Br)c(F)c3F)nn2)[C@@H](O)[C@@H](CO)O[C@@H]1Cc1cn(C23CC(C)(C2)C3)nn1 [Ex 4.1.14., (2R,3R,4S,5R,6R)-4-(4-(4-bromo-2,3-difluorophenyl)-1H-1,2,3-triazol-1-yl)-2-(hydroxymethyl)-5-methoxy-6-((1-(3-methylbicyclo[1.1.1]pentan-1-yl)-1H-1,2,3-triazol-4-yl)methyl)tetrahydro-2H-pyran-3-ol] | 1360 | 60
8 | CO[C@@H]1[C@@H](n2cc(-c3ccc(Br)c(F)c3F)nn2)[C@@H](O)[C@@H](CO)O[C@@H]1Cc1cn(C2(C)CC(F)(F)C2)nn1 [Ex 4.1.15.] | 2410 | 50
9 | CO[C@@H]1[C@@H](n2cc(-c3ccc(Br)c(F)c3F)nn2)[C@@H](O)[C@@H](CO)O[C@@H]1Cc1cn([C@]2(C)C[C@H](O)C2)nn1 [Ex 4.1.19.] | 1820 | 50
10 | COCC1(n2cc(C[C@H]3O[C@H](CO)[C@H](O)[C@H](n4cc(-c5ccc(Br)c(F)c5F)nn4)[C@H]3OC)nn2)CCC1 [Ex 4.1.21.] | 1530 | 70
11 | CO[C@@H]1[C@@H](n2cc(-c3ccc(Br)c(F)c3F)nn2)[C@@H](O)[C@@H](CO)O[C@@H]1Cc1cn(C2(CCO)COC2)nn1 [Ex 4.1.22.] | 1140 | 70
12 | CO[C@@H]1[C@@H](n2cc(-c3ccc(Br)c(F)c3F)nn2)[C@@H](O)[C@@H](CO)O[C@@H]1Cc1cn(C2(C)CC2)nn1 [Ex 4.1.23.] | 1800 | 30
13 | CO[C@@H]1[C@@H](n2cc(-c3ccc(Br)c(F)c3F)nn2)[C@@H](O)[C@@H](CO)O[C@@H]1Cc1cn(C23CC(C(F)(F)F)(C2)C3)nn1 [Ex 4.1.24.] | 28400 | 130
14 | CO[C@@H]1[C@@H](n2cc(-c3ccc(Br)c(F)c3F)nn2)[C@@H](O)[C@@H](CO)O[C@@H]1Cc1cn(C23CC(F)(C2)C3)nn1 [Ex 4.1.25., (2R,3R,4S,5R,6R)-4-(4-(4-bromo-2,3-difluorophenyl)-1H-1,2,3-triazol-1-yl)-6-((1-(3-fluorobicyclo[1.1.1]pentan-1-yl)-1H-1,2,3-triazol-4-yl)methyl)-2-(hydroxymethyl)-5-methoxytetrahydro-2H-pyran-3-ol] | 3220 | 50
15 | CO[C@@H]1[C@@H](n2cc(-c3ccc(Br)c(F)c3F)nn2)[C@@H](O)[C@@H](CO)O[C@@H]1Cc1cn(C(C)(C)C(F)F)nn1 [Ex 4.1.28.] | 1020 | 50
16 | CO[C@@H]1[C@@H](n2cc(-c3ccc(Br)c(F)c3F)nn2)[C@@H](O)[C@@H](CO)O[C@@H]1Cc1cn(C23CC(OC)(C2)C3)nn1 [Ex 4.1.29.] | 3630 | 50
17 | CO[C@@H]1[C@@H](n2cc(-c3ccc(Br)c(F)c3F)nn2)[C@@H](O)[C@@H](CO)O[C@@H]1Cc1cn(C2(CF)CCC2)nn1 [Ex 4.1.40., (2R,3R,4S,5R,6R)-4-(4-(4-bromo-2,3-difluorophenyl)-1H-1,2,3-triazol-1-yl)-6-((1-(1-(fluoromethyl)cyclobutyl)-1H-1,2,3-triazol-4-yl)methyl)-2-(hydroxymethyl)-5-methoxytetrahydro-2H-pyran-3-ol] | 1030 | 60

Further lines, results first:

Row | IC50 (human Gal-1 (hGal-1)) [nM] | IC50 (human Gal-3 (hGal-3)) [nM] | Compound
18 | 960 | 30 | CO[C@@H]1[C@@H](n2cc(-c3ccc(Br)c(F)c3F)nn2)[C@@H](O)[C@@H](CO)O[C@@H]1Cc1cn(C2(C(F)F)CCC2)nn1 [Ex 4.1.43.]
19 | 3300 | 40 | CO[C@@H]1[C@@H](n2cc(-c3ccc(Br)c(F)c3F)nn2)[C@@H](O)[C@@H](CO)O[C@@H]1Cc1cn(C23COC(C2)C3)nn1 [Ex 4.1.44.]
20 | 1940 | 30 | CO[C@@H]1[C@@H](n2cc(-c3ccc(Br)c(F)c3F)nn2)[C@@H](O)[C@@H](CO)O[C@@H]1Cc1cn(C2(CF)CC2)nn1 [Ex 4.1.46., (2R,3R,4S,5R,6R)-4-(4-(4-bromo-2,3-difluorophenyl)-1H-1,2,3-triazol-1-yl)-6-((1-(1-(fluoromethyl)cyclopropyl)-1H-1,2,3-triazol-4-yl)methyl)-2-(hydroxymethyl)-5-methoxytetrahydro-2H-pyran-3-ol]
21 | 1290 | 30 | CO[C@@H]1[C@@H](n2cc(-c3ccc(Br)c(F)c3F)nn2)[C@@H](O)[C@@H](CO)O[C@@H]1Cc1cn(C2(C(F)F)CC2)nn1 [Ex 4.1.51.]
22 | 850 | 30 | CO[C@@H]1[C@@H](n2cc(-c3ccc(Br)c(F)c3F)nn2)[C@@H](O)[C@@H](CO)O[C@@H]1Cc1cn(C2(CF)COC2)nn1 [Ex 4.1.52., (2R,3R,4S,5R,6R)-4-(4-(4-bromo-2,3-difluorophenyl)-1H-1,2,3-triazol-1-yl)-6-((1-(3-(fluoromethyl)oxetan-3-yl)-1H-1,2,3-triazol-4-yl)methyl)-2-(hydroxymethyl)-5-methoxytetrahydro-2H-pyran-3-ol]
23 | 650 | 20 | CO[C@@H]1[C@@H](n2cc(-c3ccc(Br)c(F)c3F)nn2)[C@@H](O)[C@@H](CO)O[C@@H]1Cc1cn(C2(C(F)F)COC2)nn1 [Ex 4.1.53.]
24 | 1170 | 30 | CO[C@@H]1[C@@H](n2cc(-c3ccc(Br)c(F)c3F)nn2)[C@@H](O)[C@@H](CO)O[C@@H]1Cc1cn(C2(C(F)(F)F)CC2)nn1 [Ex 4.1.54.]
25 | 1480 | 30 | CO[C@@H]1[C@@H](n2cc(-c3ccc(Br)c(F)c3F)nn2)[C@@H](O)[C@@H](CO)O[C@@H]1Cc1cn(C2(C(F)(F)F)CCC2)nn1 [Ex 4.1.55., (2R,3R,4S,5R,6R)-4-(4-(4-bromo-2,3-difluorophenyl)-1H-1,2,3-triazol-1-yl)-2-(hydroxymethyl)-5-methoxy-6-((1-(1-(trifluoromethyl)cyclobutyl)-1H-1,2,3-triazol-4-yl)methyl)tetrahydro-2H-pyran-3-ol]
26 | 1070 | 20 | CO[C@@H]1[C@@H](n2cc(-c3ccc(Br)c(F)c3F)nn2)[C@@H](O)[C@@H](CO)O[C@@H]1Cc1cn(C2(C(F)(F)F)COC2)nn1 [Ex 4.1.58.]
27 | 2030 | 30 | CO[C@@H]1[C@@H](n2cc(-c3ccc(Br)c(F)c3F)nn2)[C@@H](O)[C@@H](CO)O[C@@H]1Cc1cn(C23COC(C)(C2)C3)nn1 [Ex 4.1.59., (2R,3R,4S,5R,6R)-4-(4-(4-bromo-2,3-difluorophenyl)-1H-1,2,3-triazol-1-yl)-2-(hydroxymethyl)-5-methoxy-6-((1-(1-methyl-2-oxabicyclo[2.1.1]hexan-4-yl)-1H-1,2,3-triazol-4-yl)methyl)tetrahydro-2H-pyran-3-ol]
28 | 2030 | 20 | CO[C@@H]1[C@@H](n2cc(-c3ccc(Br)c(F)c3F)nn2)[C@@H](O)[C@@H](CO)O[C@@H]1Cc1cn(C23CCOC(C)(C2)C3)nn1 [Ex 4.1.62., (2R,3R,4S,5R,6R)-4-(4-(4-bromo-2,3-difluorophenyl)-1H-1,2,3-triazol-1-yl)-2-(hydroxymethyl)-5-methoxy-6-((1-(1-methyl-2-oxabicyclo[3.1.1]heptan-5-yl)-1H-1,2,3-triazol-4-yl)methyl)tetrahydro-2H-pyran-3-ol]
29 | 4640 | 70 | CO[C@@H]1[C@@H](n2cc(-c3ccc(Br)c(F)c3F)nn2)[C@@H](O)[C@@H](CO)O[C@@H]1Cn1cc(C2(CO)CC2)nn1 [Ex 4.2.4.]
30 | 2530 | 70 | CO[C@@H]1[C@@H](n2cc(-c3ccc(Br)c(F)c3F)nn2)[C@@H](O)[C@@H](CO)O[C@@H]1Cn1cc(C2(C)COC2)nn1 [Ex 4.2.6.]
31 | 3310 | 90 | CO[C@@H]1[C@@H](n2cc(-c3ccc(Br)c(F)c3F)nn2)[C@@H](O)[C@@H](CO)O[C@@H]1Cn1cc(C23CC(C2)C3)nn1 [Ex 4.2.12.]
32 | 1930 | 50 | CO[C@@H]1[C@@H](n2cc(-c3ccc(Br)c(F)c3F)nn2)[C@@H](O)[C@@H](CO)O[C@@H]1Cn1cc(C2(C)CCC2)nn1 [Ex 4.2.13.]
33 | 2480 | 50 | CO[C@@H]1[C@@H](n2cc(-c3ccc(Br)c(F)c3F)nn2)[C@@H](O)[C@@H](CO)O[C@@H]1Cn1cc(C2(C)CC2)nn1 [Ex 4.2.23.]
34 | 2680 | 60 | CO[C@@H]1[C@@H](n2cc(-c3ccc(Br)c(F)c3F)nn2)[C@@H](O)[C@@H](CO)O[C@@H]1Cn1cc(C2CCCC2)nn1 [Ex 4.2.32.]
35 | 4110 | 100 | CO[C@@H]1[C@@H](n2cc(-c3ccc(Br)c(F)c3F)nn2)[C@@H](O)[C@@H](CO)O[C@@H]1Cn1cc(C2(O)CCCC2)nn1 [Ex 4.2.33.]
36 | 5490 | 100 | CO[C@@H]1[C@@H](n2cc(-c3ccc(Br)c(F)c3F)nn2)[C@@H](O)[C@@H](CO)O[C@@H]1Cn1cc(C(C)(C)O)nn1 [Ex 4.2.34.]
